# Article PMC3904209 (AMB Express, 2014)
# How the values were obtained:
# Conditions in all cases: 50 mM KHCO3, 50 mM HEPES, 50 mM Na2SO4, 50 mM MgSO4, pH 6, 1°C
# CaaB = target: T1, CaaB (Cupriavidus necator, UniProt Q0JYI9)
# T1 construct: gene caa
# Can2 = Can2 (Cupriavidus necator, UniProt Q0JYX2)
# Caa = Caa (Cupriavidus necator, UniProt Q0JYI9)
# Can = Can (Cupriavidus necator, UniProt Q0KFA0)
# Cag = target: T2, Cag (Cupriavidus necator, UniProt Q0KCD8)
# T2 construct: gene H16_A1192
# T2 sequence (Q0KCD8 1-174): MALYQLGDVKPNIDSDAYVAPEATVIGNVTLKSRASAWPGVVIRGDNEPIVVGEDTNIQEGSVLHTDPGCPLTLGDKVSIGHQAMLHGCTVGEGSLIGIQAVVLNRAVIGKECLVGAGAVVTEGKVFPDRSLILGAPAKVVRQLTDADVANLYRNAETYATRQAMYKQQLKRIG
# Can2, sequence (Q0JYX2 1-235): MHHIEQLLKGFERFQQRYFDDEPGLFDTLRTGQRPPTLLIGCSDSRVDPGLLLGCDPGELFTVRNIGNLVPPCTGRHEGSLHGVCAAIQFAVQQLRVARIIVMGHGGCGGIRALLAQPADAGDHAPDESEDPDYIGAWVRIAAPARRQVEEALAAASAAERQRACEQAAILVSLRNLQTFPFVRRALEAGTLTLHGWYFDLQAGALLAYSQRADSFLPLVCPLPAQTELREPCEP
# Can, sequence (Q0KFA0 1-223): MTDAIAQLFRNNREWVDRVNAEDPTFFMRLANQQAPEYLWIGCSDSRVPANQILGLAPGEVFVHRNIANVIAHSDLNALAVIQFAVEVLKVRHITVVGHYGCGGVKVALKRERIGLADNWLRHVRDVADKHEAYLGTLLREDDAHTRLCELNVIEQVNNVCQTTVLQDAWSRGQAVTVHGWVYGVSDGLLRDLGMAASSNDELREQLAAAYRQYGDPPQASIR
# Caa, sequence (Q0JYI9 1-249): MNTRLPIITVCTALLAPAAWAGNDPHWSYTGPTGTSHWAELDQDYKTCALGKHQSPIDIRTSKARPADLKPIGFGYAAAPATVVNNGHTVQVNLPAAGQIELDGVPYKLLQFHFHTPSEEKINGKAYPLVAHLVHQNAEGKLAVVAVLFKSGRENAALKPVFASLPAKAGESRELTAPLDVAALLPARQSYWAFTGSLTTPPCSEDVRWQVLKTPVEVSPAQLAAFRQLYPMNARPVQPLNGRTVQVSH
# T1 sequence (Q0JYI9 24-249): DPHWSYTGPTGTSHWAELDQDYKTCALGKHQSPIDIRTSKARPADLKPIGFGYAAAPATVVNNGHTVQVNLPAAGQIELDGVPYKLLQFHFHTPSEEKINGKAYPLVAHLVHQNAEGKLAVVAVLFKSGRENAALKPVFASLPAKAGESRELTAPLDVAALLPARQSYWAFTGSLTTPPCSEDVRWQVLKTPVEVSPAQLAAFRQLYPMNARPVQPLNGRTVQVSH
compound,measurement,setting,value
O=C(O)O [bicarbonate],"stopped-flow pH-indicator (phenol red, A557nm) assay",CaaB,"(CaaB) exhibited similar activity values when compared to the purified, Strep-tagged Caa enzyme"
same,"stopped-flow pH-indicator (phenol red, A557nm) assay",Can2,the specific activities of both Can and Can2 were similar with bicarbonate as a substrate
same,"stopped-flow pH-indicator (phenol red, A557nm) assay",Caa,All CAs were active towards CO2 and bicarbonate
same,"stopped-flow pH-indicator (phenol red, A557nm) assay",Can,the specific activities of both Can and Can2 were similar with bicarbonate as a substrate
same,"stopped-flow pH-indicator (phenol red, A557nm) assay",Cag,Cag presented the highest activity using bicarbonate as a carbon source
